Measurements published in US11046949B2, “Method and system for microbial lysis using periodates” (priority 2014, dated 2021).
Where “and” joins values, the source holds several entries; their conditions need not be identical. Equal entries are not always repeated. Where two headings read alike, the source gives them in different places.

What was measured:
Mycobacteria = experiment: Release of DNA from Mycobacteria by solvents, detergents, formic acid, borate; assay type: cell-based, Mycobacterium; conditions: solvents to strip waxy cell wall component
Protocol: The hardy cell wall of Mycobacterium consists of a thick, waxy, hydrophobic, mycolate layer and a peptidoglycan layer held together by polysaccharide. […] Similarly, various detergents (e.g., SDS), formic acid, and borate were tested at elevated temperatures.

[1] = test system: Bacillus subtilis vegetative cells; experiment: DNA release from B. subtilis by per-halogenated and oxidizing compounds, Acid-Hydrolysis HPLC Method; assay type: cell-based; conditions: 70° C. 20 minutes; for % DNA release / AUC, Ade: 15 mM compound in BD buffer, samples 1-3; for % DNA release (Average) / AUC, Ade (Average): 15 mM compound, average of 3
M. smegmatis [2] = assay type: cell-based, Mycobacterium smegmatis; conditions: BD2 buffer
S. aureus [3] = assay type: cell-based, Staphylococcus aureus; conditions: BD2 buffer
M. catarrhalis [4] = assay type: cell-based, Moraxella catarrhalis; conditions: periodate +, BD2 buffer
Y. enterocolitica [5] = assay type: cell-based, Yersinia enterocolitica; conditions: periodate +, BD2 buffer
F. philomiragia [6] = assay type: cell-based, Francisella philomiragia; conditions: periodate +, BD2 buffer
Y. enterocolitica [7] = assay type: cell-based, Yersinia enterocolitica; conditions: BD2 buffer
[8] = test system: attenuated M. tuberculosis (aMTB) spiked in saliva; assay type: cell-based, Mycobacterium tuberculosis
K. pneumonia [9] = assay type: cell-based, Klebsiella pneumonia; conditions: BD2 buffer
P. aeruginosa [10] = assay type: cell-based, Pseudomonas aeruginosa; conditions: periodate +, BD2 buffer
Mycobacterium smegmatis = experiment: NPI-mediated release of DNA from M. smegmatis as a function of pH, Acid-Extraction HPLC Method
[11] = test system: C. botulinum Type B spores; assay type: cell-based, Clostridium botulinum; conditions: Post-Periodate: BD2 buffer, 30 mM NPI, 70° C. 20 minutes, FIG. 16
M. catarrhalis [12] = assay type: cell-based, Moraxella catarrhalis; conditions: BD2 buffer
[13] = test system: Mycobacterium smegmatis lysate proteins; experiment: M. smegmatis lysate treated with periodate, SDS-PAGE; conditions: 7.5 and 15 mM periodate, 70° C. 15 minutes, FIG. 13
[14] = test system: M. tuberculosis in TB-positive sputum; experiment: TB-positive sputum, qPCR targeting RD4 MTBC region of difference; assay type: cell-based, Mycobacterium tuberculosis
[15] = test system: attenuated MTB H37Ra (aMTB) spiked in sputum; experiment: DNA isolated from aMTB-spiked sputum using swabs and periodate, RD4 rtPCR
B. thuringiensis [16] = assay type: cell-based, Bacillus thuringiensis; conditions: BD2 buffer
[17] = test system: B. anthracis Sterne Strain spores; assay type: cell-based, Bacillus anthracis; conditions: Post-Periodate: BD2 buffer, 30 mM NPI, 70° C. 20 minutes, FIG. 15
C. albicans [18] = conditions: periodate +, BD2 buffer
F. philomiragia [19] = assay type: cell-based, Francisella philomiragia; conditions: BD2 buffer
B. thuringiensis [20] = assay type: cell-based, Bacillus thuringiensis; conditions: periodate +, BD2 buffer
C. difficile spores = assay type: cell-based, Clostridium difficile
[21] = molecular target: Pancreatic Ribonuclease A (Bos taurus, UniProt P61823); experiment: Pure pancreatic ribonuclease A treated with periodate, SDS-PAGE; conditions: 15 mM periodate, 70° C. 15 minutes, FIG. 12
S. aureus [22] = assay type: cell-based, Staphylococcus aureus; conditions: periodate +, BD2 buffer
K. pneumonia [23] = assay type: cell-based, Klebsiella pneumonia; conditions: periodate +, BD2 buffer
P. aeruginosa [24] = assay type: cell-based, Pseudomonas aeruginosa; conditions: BD2 buffer
C. albicans [25] = assay type: cell-based, Candida albicans; conditions: BD2 buffer
[26] = molecular target: pancreatic ribonuclease A (RNase A) (Bos taurus, UniProt P61823); experiment: Inhibition of RNase A by pre-treatment with periodate, HeLa RNA integrity on agarose gel; conditions: RNase A pre-incubated with 15 mM periodate, 70° C. 15 minutes, FIG. 14
M. smegmatis [27] = assay type: cell-based, Mycobacterium smegmatis; conditions: periodate +, BD2 buffer

Pancreatic Ribonuclease A, sequence (P61823 27-150): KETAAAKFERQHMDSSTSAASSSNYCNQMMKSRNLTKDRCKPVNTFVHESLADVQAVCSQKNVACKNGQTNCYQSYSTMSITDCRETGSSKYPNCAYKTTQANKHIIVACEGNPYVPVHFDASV
pancreatic ribonuclease A (RNase A), sequence (P61823 27-150): as above

## C[S+](C)[O-] [DMSO]
Mycobacteria
  release of DNA: no increased release of DNA was observed

## O.O.O.O.[Na+].[O-]B1OO1 [Perborate, sodium perborate tetrahydrate, reference compound]
[1]
  % DNA release: 5.5% and 6.3% and 6.4%
  AUC, Ade: 70 and 80 and 82
  % DNA release (Average): 6.1%
  AUC, Ade (Average): 77.3

## [Na+].[O-][Cl+3]([O-])([O-])[O-] [Perchlorate, sodium perchlorate, reference compound]
[1]
  % DNA release: 6.2% and 6.7% and 6.4%
  AUC, Ade: 79 and 85 and 81
  % DNA release (Average): 6.4%
  AUC, Ade (Average): 81.7

## [O-][I+3]([O-])([O-])O [Periodate, sodium (meta)periodate]
M. smegmatis [2]; 35° C. 20 minutes
  % DNA Released: 49.7%
M. smegmatis [2]; 70° C. 20 minutes
  % DNA Released: 85.2%
M. smegmatis [2]; 80° C. 20 minutes
  % DNA Released: 80.6%
S. aureus [3]; 35° C. 20 minutes
  % DNA Released: 18.4%
S. aureus [3]; 70° C. 20 minutes
  % DNA Released: 24.8%
S. aureus [3]; 80° C. 20 minutes
  % DNA Released: 26.7%
M. catarrhalis [4]; 35° C. 20 minutes
  Ct values: 16.3
M. catarrhalis [4]; 70° C. 20 minutes
  Ct values: 12.7
M. catarrhalis [4]; 80° C. 20 minutes
  Ct values: 10.8
Y. enterocolitica [5]; 35° C. 20 minutes
  Ct values: 15.5
Y. enterocolitica [5]; 70° C. 20 minutes
  Ct values: 12.0
Y. enterocolitica [5]; 80° C. 20 minutes
  Ct values: 11.4
F. philomiragia [6]; 35° C. 20 minutes
  Ct values: 15.3
F. philomiragia [6]; 70° C. 20 minutes
  Ct values: 15.5
F. philomiragia [6]; 80° C. 20 minutes
  Ct values: 16.0
Y. enterocolitica [7]; 35° C. 20 minutes
  % DNA Released: 52.1%
Y. enterocolitica [7]; 70° C. 20 minutes
  % DNA Released: 80.8%
Y. enterocolitica [7]; 80° C. 20 minutes
  % DNA Released: 89.5%
[8]
  Growth (up to 42 days): NEG
  Time to Positive: >42 days
  growth on LJ medium: no growth of any microorganism was observed
K. pneumonia [9]; 35° C. 20 minutes
  % DNA Released: 49.0%
K. pneumonia [9]; 70° C. 20 minutes
  % DNA Released: 119.2%
K. pneumonia [9]; 80° C. 20 minutes
  % DNA Released: 124.4%
P. aeruginosa [10]; 35° C. 20 minutes
  Ct values: 10.8
P. aeruginosa [10]; 70° C. 20 minutes
  Ct values: 7.8
P. aeruginosa [10]; 80° C. 20 minutes
  Ct values: 8.8
Mycobacterium smegmatis; 6 mM NPI in PAB buffer solutions pH 3.7-9.4, 70° C. 20 minutes
  percentage of total DNA released: 37.4-59.4%
Mycobacterium smegmatis; 6 mM NPI, 70° C. 20 minutes
  increase of percentage of total DNA released vs no NPI: approximately 9 fold
[11]
  spore viability by culture: no C. botulinum or C. difficile spores were viable by culture
M. catarrhalis [12]; 35° C. 20 minutes
  % DNA Released: 77.1%
M. catarrhalis [12]; 70° C. 20 minutes
  % DNA Released: 143.6%
M. catarrhalis [12]; 80° C. 20 minutes
  % DNA Released: 140.5%
[13]
  protein bands in cell-free lysate: some protein bands selectively decreased or disappeared altogether
[14]
  Real-time PCR Ct value (in duplicate): 32/32 and 41/33 and 23/23 and 33/33 and 19/19 and 24/25
[15]; 1:10 dilution of DNA, Copan
  Periodate efficiency (Ct Swab 6 (−) Ct average): 3.78
[15]; 1:10 dilution of DNA, Puritan
  Periodate efficiency (Ct Swab 6 (−) Ct average): 5.72
[15]; (+) periodate
  Ct value (1:10 dilution of DNA) Copan, Average: 27.55
  Ct value (1:10 dilution of DNA) Puritan, Average: 27.11
  Ct value (neat DNA) Copan, Average: 24.02
  Ct value (neat DNA) Puritan, Average: 23.69
[15]; (+) periodate 30 mM, Swabs 1-5
  Ct value (1:10 dilution of DNA) Copan: 26.49 and 28.11 and 29.12 and 33.99 and 26.47
  Ct value (1:10 dilution of DNA) Puritan: 26.24 and 27.74 and 26.60 and 27.29 and 27.67
  Ct value (neat DNA) Copan: 22.99 and 24.60 and 25.55 and 30 .09 and 22.93
  Ct value (neat DNA) Puritan: 22.67 and 24.19 and 23.28 and 23.93 and 24.36
[15]; neat DNA, Copan
  Periodate efficiency (Ct Swab 6 (−) Ct average): 3.73
[15]; neat DNA, Puritan
  Periodate efficiency (Ct Swab 6 (−) Ct average): 3.93
[15]; periodate included vs not included
  increase in the amount of aMTB-specific DNA recovered per swab: > 10 fold
[1]
  % DNA release: 46.6% and 48.0% and 37.4%
  AUC, Ade: 594 and 611 and 476
  % DNA release (Average): 44.0%
  AUC, Ade (Average): 560.3
[1]; listed as sodium (meta)periodate
  % DNA release (Average): 44%
B. thuringiensis [16]; 35° C. 20 minutes
  % DNA Released: 42.1%
B. thuringiensis [16]; 70° C. 20 minutes
  % DNA Released: 103.5%
B. thuringiensis [16]; 80° C. 20 minutes
  % DNA Released: 107.7%
[17]
  spore viability by culture: dramatically reduced the viability
C. albicans [18]; 35° C. 20 minutes
  Ct values: 27.1
C. albicans [18]; 70° C. 20 minutes
  Ct values: 15.2
C. albicans [18]; 80° C. 20 minutes
  Ct values: 15.7
F. philomiragia [19]; 35° C. 20 minutes
  % DNA Released: 65.3%
F. philomiragia [19]; 70° C. 20 minutes
  % DNA Released: 89.4%
F. philomiragia [19]; 80° C. 20 minutes
  % DNA Released: 92.0%
B. thuringiensis [20]; 35° C. 20 minutes
  Ct values: 15.5
B. thuringiensis [20]; 70° C. 20 minutes
  Ct values: 10.3
B. thuringiensis [20]; 80° C. 20 minutes
  Ct values: 10.8
C. difficile spores
  spore viability by culture: no C. botulinum or C. difficile spores were viable by culture
[21]
  quantity of full-length purified RNase protein: decreased
S. aureus [22]; 35° C. 20 minutes
  Ct values: 15.5
S. aureus [22]; 70° C. 20 minutes
  Ct values: 13.7
S. aureus [22]; 80° C. 20 minutes
  Ct values: 15.0
K. pneumonia [23]; 35° C. 20 minutes
  Ct values: 24.3
K. pneumonia [23]; 70° C. 20 minutes
  Ct values: 9.3
K. pneumonia [23]; 80° C. 20 minutes
  Ct values: 9.6
P. aeruginosa [24]; 35° C. 20 minutes
  % DNA Released: 38.6%
P. aeruginosa [24]; 70° C. 20 minutes
  % DNA Released: 117.8%
P. aeruginosa [24]; 80° C. 20 minutes
  % DNA Released: 98.2%
C. albicans [25]; 35° C. 20 minutes
  % DNA Released: 105.4%
C. albicans [25]; 70° C. 20 minutes
  % DNA Released: 155.3%
C. albicans [25]; 80° C. 20 minutes
  % DNA Released: 156.4%
[26]
  RNase A activity on HeLa ribosomal RNA: ribosomal RNA was no longer degraded by RNase A
M. smegmatis [27]; 35° C. 20 minutes
  Ct values: 22.8
M. smegmatis [27]; 70° C. 20 minutes
  Ct values: 18.1
M. smegmatis [27]; 80° C. 20 minutes
  Ct values: 17.9

## O=S(=O)([O-])OOS(=O)(=O)[O-].[Na+].[Na+] [Persulfate, sodium persulfate]
[1]
  % DNA release: 15.9% and 14.7% and 14.3%
  AUC, Ade: 202 and 187 and 182
  % DNA release (Average): 15.0%
  AUC, Ade (Average): 190.3
[1]; listed as sodium persulfate
  % DNA release (Average): 15%
